{
  "source": "patent US11207320B2",
  "about": "“Compositions and methods for cancer expressing PDE3A or SLFN12” (The Broad Institute, Inc., priority 2015, dated 2021)",
  "key": {"PDE3B": {"target": "T1, PDE3B (Homo sapiens, UniProt Q13370)", "T1 construct": "Caliper", "assay": "Phosphodiesterase inhibition reactions (Caliper panel)", "format": "biochemical", "conditions": "100 nM", "procedure": "(§1) DNMDP concentration was 100 nM."}, "PDE9A2": {"target": "T2, PDE9A2 (Homo sapiens, UniProt O76083)", "T2 construct": "Caliper", "assay": "Phosphodiesterase inhibition reactions (Caliper panel)", "format": "biochemical", "conditions": "PDE9A2, 100 nM", "procedure": "as §1"}, "PDE4D3": {"target": "T3, PDE4D3 (Homo sapiens, UniProt Q08499)", "T3 construct": "Caliper", "assay": "Phosphodiesterase inhibition reactions (Caliper panel)", "format": "biochemical", "conditions": "PDE4D3, 100 nM", "procedure": "as §1"}, "PDE4B1": {"target": "T4, PDE4B1 (Homo sapiens, UniProt Q07343)", "T4 construct": "Caliper", "assay": "Phosphodiesterase inhibition reactions (Caliper panel)", "format": "biochemical", "conditions": "PDE4B1, 100 nM", "procedure": "as §1"}, "PDE11A": {"target": "T5, PDE11A (Homo sapiens, UniProt Q9HCR9)", "T5 construct": "Caliper", "T5 sequence (Q9HCR9 whole entry, species assumed)": "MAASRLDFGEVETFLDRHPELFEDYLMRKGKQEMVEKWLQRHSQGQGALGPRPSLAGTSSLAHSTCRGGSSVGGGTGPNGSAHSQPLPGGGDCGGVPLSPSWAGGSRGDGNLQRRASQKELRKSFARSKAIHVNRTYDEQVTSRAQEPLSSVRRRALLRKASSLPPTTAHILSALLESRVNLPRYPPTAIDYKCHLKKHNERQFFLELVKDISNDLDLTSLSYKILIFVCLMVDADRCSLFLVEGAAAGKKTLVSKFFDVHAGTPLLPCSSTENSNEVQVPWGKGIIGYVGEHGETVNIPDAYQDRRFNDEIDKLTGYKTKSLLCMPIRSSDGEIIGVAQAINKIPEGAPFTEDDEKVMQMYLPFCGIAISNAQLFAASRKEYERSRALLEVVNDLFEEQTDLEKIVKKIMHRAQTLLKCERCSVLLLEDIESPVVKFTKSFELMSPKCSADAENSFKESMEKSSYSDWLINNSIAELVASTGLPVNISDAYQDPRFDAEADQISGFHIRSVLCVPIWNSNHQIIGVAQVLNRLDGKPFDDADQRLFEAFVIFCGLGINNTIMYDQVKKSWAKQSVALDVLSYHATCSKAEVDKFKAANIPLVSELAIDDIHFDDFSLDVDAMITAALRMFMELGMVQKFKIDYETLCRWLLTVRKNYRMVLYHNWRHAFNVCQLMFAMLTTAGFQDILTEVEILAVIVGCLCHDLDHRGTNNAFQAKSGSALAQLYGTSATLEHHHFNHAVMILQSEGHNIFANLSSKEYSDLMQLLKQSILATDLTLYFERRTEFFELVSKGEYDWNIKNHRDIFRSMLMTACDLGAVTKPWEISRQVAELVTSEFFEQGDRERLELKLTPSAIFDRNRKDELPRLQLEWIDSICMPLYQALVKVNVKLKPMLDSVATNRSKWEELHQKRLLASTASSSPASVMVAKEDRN", "assay": "Phosphodiesterase inhibition reactions (Caliper panel)", "format": "biochemical", "conditions": "100 nM", "procedure": "as §1"}, "PDE4C1": {"target": "T6, PDE4C1 (Homo sapiens, UniProt Q08493)", "T6 construct": "Caliper", "T6 sequence (Q08493 whole entry, species assumed)": "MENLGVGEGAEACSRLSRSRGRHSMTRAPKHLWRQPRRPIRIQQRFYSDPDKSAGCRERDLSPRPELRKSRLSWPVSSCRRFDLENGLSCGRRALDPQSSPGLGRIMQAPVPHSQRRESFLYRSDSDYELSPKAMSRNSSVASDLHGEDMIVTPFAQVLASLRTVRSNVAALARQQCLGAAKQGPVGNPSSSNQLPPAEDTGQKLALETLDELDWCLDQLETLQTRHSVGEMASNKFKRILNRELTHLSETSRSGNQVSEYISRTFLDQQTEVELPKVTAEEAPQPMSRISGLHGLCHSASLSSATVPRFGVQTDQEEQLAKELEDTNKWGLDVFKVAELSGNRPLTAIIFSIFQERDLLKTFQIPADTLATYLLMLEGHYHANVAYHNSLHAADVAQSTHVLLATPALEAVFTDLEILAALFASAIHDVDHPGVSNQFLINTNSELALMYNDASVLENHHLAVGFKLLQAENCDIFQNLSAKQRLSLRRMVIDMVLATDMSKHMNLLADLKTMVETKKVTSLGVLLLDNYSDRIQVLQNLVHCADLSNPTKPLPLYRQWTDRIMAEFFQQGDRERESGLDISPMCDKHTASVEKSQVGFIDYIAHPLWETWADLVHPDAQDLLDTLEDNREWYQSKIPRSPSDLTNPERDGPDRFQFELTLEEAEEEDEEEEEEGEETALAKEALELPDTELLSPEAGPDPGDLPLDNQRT", "assay": "Phosphodiesterase inhibition reactions (Caliper panel)", "format": "biochemical", "conditions": "PDE4C1, 100 nM", "procedure": "as §1"}, "PDE1B": {"target": "T7, PDE1B (Homo sapiens, UniProt Q01064)", "T7 construct": "Caliper", "assay": "Phosphodiesterase inhibition reactions (Caliper panel)", "format": "biochemical", "conditions": "100 nM", "procedure": "as §1"}, "PDE5A1": {"target": "T8, PDE5A1 (Homo sapiens, UniProt O76074)", "T8 construct": "Caliper", "assay": "Phosphodiesterase inhibition reactions (Caliper panel)", "format": "biochemical", "conditions": "PDE5A1, 100 nM", "procedure": "as §1"}, "PDE7A": {"target": "T9, PDE7A (Homo sapiens, UniProt Q13946)", "T9 construct": "Caliper", "assay": "Phosphodiesterase inhibition reactions (Caliper panel)", "format": "biochemical", "conditions": "100 nM", "procedure": "as §1"}, "PDE7B": {"target": "T10, PDE7B (Homo sapiens, UniProt Q9NP56)", "T10 construct": "Caliper", "assay": "Phosphodiesterase inhibition reactions (Caliper panel)", "format": "biochemical", "conditions": "100 nM", "procedure": "as §1"}, "PDE2A": {"target": "T11, PDE2A (Homo sapiens, UniProt O00408)", "T11 construct": "Caliper", "T11 sequence (O00408 whole entry, species assumed)": "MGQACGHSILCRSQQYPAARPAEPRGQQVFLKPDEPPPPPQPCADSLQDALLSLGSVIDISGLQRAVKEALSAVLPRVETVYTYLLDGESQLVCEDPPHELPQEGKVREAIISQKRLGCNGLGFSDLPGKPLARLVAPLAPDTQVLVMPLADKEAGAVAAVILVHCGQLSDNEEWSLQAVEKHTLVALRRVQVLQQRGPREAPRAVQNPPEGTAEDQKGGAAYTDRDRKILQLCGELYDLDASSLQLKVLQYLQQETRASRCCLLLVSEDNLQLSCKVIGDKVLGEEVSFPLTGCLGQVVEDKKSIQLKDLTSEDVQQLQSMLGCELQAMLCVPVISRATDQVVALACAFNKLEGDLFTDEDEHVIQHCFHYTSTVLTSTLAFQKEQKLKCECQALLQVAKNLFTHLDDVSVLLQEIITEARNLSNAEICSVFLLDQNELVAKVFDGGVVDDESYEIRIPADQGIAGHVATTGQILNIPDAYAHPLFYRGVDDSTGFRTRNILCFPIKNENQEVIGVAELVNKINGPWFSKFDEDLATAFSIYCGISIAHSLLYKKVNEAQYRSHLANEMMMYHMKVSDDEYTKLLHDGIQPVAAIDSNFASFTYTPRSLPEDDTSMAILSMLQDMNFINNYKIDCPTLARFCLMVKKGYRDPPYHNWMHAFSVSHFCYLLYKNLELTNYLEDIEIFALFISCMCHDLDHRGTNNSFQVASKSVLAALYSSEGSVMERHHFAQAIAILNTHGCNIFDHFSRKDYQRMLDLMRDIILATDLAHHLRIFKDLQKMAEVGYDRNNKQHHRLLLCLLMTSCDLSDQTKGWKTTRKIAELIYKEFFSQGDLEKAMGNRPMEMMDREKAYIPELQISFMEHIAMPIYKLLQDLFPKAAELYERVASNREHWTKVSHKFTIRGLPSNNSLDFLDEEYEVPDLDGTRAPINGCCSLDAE", "assay": "Phosphodiesterase inhibition reactions (Caliper panel)", "format": "biochemical", "conditions": "100 nM", "procedure": "as §1"}, "PDE4D7": {"target": "T12, PDE4D7 (Homo sapiens, UniProt Q08499)", "T12 construct": "Caliper", "assay": "Phosphodiesterase inhibition reactions (Caliper panel)", "format": "biochemical", "conditions": "PDE4D7, 100 nM", "procedure": "as §1"}, "PDE1C": {"target": "T13, PDE1C (Homo sapiens, UniProt Q14123)", "T13 construct": "Caliper", "T13 sequence (Q14123 whole entry, species assumed)": "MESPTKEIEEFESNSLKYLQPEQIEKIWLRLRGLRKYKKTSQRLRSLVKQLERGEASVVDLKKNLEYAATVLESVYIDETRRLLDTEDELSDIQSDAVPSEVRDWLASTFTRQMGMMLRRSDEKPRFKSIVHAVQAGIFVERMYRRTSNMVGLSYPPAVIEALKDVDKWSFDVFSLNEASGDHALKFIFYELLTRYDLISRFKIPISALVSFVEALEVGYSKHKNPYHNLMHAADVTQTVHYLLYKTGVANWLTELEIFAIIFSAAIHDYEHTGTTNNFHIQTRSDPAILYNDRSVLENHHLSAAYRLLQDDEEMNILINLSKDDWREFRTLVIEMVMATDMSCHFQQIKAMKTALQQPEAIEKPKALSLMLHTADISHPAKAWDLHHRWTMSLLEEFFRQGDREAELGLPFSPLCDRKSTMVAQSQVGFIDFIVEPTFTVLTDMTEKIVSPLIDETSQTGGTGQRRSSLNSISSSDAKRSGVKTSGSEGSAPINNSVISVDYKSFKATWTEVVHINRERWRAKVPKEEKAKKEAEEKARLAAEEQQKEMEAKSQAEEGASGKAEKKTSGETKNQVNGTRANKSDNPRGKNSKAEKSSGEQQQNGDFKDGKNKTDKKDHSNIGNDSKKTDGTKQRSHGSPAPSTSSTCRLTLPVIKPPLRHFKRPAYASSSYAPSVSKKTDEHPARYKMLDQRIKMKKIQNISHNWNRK", "assay": "Phosphodiesterase inhibition reactions (Caliper panel)", "format": "biochemical", "conditions": "100 nM", "procedure": "as §1"}, "PDE4A1A": {"target": "T14, PDE4A1A (Homo sapiens, UniProt P27815)", "T14 construct": "Caliper", "T14 sequence (P27815 1-647 isoform P27815-4)": "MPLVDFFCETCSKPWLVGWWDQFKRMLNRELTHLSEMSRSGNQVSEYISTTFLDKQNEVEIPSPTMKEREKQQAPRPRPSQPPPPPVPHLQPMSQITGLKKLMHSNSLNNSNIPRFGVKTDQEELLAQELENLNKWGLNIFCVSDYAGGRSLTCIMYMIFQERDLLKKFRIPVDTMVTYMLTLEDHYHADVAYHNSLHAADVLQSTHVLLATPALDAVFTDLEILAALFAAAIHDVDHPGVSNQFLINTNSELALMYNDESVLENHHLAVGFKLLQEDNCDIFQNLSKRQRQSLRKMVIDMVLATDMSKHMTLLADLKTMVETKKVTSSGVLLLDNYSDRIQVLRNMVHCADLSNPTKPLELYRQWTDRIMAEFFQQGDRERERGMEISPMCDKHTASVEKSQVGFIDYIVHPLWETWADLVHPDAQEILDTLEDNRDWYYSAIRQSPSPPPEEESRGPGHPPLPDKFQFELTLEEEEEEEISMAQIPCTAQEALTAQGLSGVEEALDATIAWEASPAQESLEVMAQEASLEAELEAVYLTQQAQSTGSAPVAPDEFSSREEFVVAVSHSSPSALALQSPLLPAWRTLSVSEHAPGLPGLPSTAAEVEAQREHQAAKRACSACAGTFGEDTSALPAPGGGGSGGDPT", "assay": "Phosphodiesterase inhibition reactions (Caliper panel)", "format": "biochemical", "conditions": "100 nM", "procedure": "as §1"}, "PDE10A1": {"target": "T15, PDE10A1 (Homo sapiens, UniProt Q9Y233)", "T15 construct": "Caliper", "assay": "Phosphodiesterase inhibition reactions (Caliper panel)", "format": "biochemical", "conditions": "PDE10A1, 100 nM", "procedure": "as §1"}, "PDE8A1": {"target": "T16, PDE8A1 (Homo sapiens, UniProt O60658)", "T16 construct": "Caliper", "assay": "Phosphodiesterase inhibition reactions (Caliper panel)", "format": "biochemical", "conditions": "PDE8A1, 100 nM", "procedure": "as §1"}, "PDE10A2": {"target": "T17, PDE10A2 (Homo sapiens, UniProt Q9Y233)", "T17 construct": "Caliper", "T17 sequence (Q9Y233 267-1055, species assumed)": "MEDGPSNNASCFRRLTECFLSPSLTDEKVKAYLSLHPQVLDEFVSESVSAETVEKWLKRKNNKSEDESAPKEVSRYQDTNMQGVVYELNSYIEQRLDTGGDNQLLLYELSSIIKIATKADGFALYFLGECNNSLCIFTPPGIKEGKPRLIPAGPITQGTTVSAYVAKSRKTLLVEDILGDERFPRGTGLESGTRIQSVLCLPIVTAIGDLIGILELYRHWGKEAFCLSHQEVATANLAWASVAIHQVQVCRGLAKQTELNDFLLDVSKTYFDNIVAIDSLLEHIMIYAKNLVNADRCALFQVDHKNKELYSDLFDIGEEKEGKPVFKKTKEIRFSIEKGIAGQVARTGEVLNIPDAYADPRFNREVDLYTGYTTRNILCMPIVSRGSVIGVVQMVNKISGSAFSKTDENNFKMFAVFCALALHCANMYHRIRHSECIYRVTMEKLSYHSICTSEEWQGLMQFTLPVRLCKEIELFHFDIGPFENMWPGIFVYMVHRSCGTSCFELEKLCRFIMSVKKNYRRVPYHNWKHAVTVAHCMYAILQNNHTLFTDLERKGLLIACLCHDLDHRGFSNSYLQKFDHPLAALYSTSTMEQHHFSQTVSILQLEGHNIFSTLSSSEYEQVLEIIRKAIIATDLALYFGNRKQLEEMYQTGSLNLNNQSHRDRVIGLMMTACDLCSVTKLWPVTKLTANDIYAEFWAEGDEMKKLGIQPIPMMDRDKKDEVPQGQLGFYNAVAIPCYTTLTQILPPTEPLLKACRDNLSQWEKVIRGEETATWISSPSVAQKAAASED", "assay": "Phosphodiesterase inhibition reactions (Caliper panel)", "format": "biochemical", "conditions": "PDE10A2, 100 nM", "procedure": "as §1"}, "PDE1A1": {"system": "PDE1A1", "assay": "Phosphodiesterase inhibition reactions (Caliper panel)", "format": "biochemical", "conditions": "PDE1A1, 100 nM", "procedure": "as §1"}, "HeLa cells": {"system": "HeLa cells", "format": "cell-based", "conditions": "co-treated with DNMDP, 48 hours", "procedure": "HeLa cells were co-treated with 30 nM DNMDP (the EC70 concentration) and 20 μM of each bioactive compound. Cell viability after 48-hour treatment was assessed by ATP consumption as described earlier.\n1000 HeLa cells were plated in a 384-well plate in 40 μl of DMEM supplemented with 10% Fetal Bovine Serum and 1% Pen/Strep. 24 hours after plating, a compound-library of 1600 bioactive molecules (Pharmacon) was added at a concentration of 20 μM. In parallel to bioactive compound incubation, DNMDP was added to a final concentration of 30 nM and incubated for 48 hours. Cell viability was assessed as described in Compound library screening in NCI-H1734 and A549 cell lines."}, "PDE3": {"system": "PDE3", "conditions": "Ruppert et al., Life Sci. 31, 2037-2043, 1982; cited from earlier work"}, "[1]": {"conditions": "replicate #1, read-out: % inh. #1"}, "[2]": {"conditions": "replicate #2, read-out: % inh. #2"}},
  "note": "Where two headings read alike, the source gives them in different places.",
  "data": [
    {"molecule": "CCN(CC)c1ccc(C2=NNC(=O)CC2C)cc1[N+](=O)[O-]", "note": "(centres unmarked) [DNMDP, 6-(4-(diethylamino)-3-nitrophenyl)-5-methyl-4,5-dihydropyridazin-3(2H)-one]", "values": [
      {"measurement": "inhibition at 0.1 µM", "setting": "PDE3B; read-out: % inhibition", "value": 97, "unit": "%"},
      {"measurement": "inhibition at 0.1 µM", "setting": "PDE3B; [1]", "value": 98, "unit": "%"},
      {"measurement": "inhibition at 0.1 µM", "setting": "PDE3B; [2]", "value": 97, "unit": "%"},
      {"measurement": "inhibition at 0.1 µM", "setting": "PDE9A2; [1]", "value": 0, "unit": "%"},
      {"measurement": "inhibition at 0.1 µM", "setting": "PDE9A2; [2]", "value": 5, "unit": "%"},
      {"measurement": "inhibition at 0.1 µM", "setting": "PDE9A2; read-out: % inhibition", "value": 2, "unit": "%"},
      {"measurement": "inhibition at 0.1 µM", "setting": "PDE4D3; [1]", "value": 14, "unit": "%"},
      {"measurement": "inhibition at 0.1 µM", "setting": "PDE4D3; [2]", "value": 16, "unit": "%"},
      {"measurement": "inhibition at 0.1 µM", "setting": "PDE4D3; read-out: % inhibition", "value": 15, "unit": "%"},
      {"measurement": "inhibition at 0.1 µM", "setting": "PDE4B1; [1]", "value": 21, "unit": "%"},
      {"measurement": "inhibition at 0.1 µM", "setting": "PDE4B1; [2]", "value": 20, "unit": "%"},
      {"measurement": "inhibition at 0.1 µM", "setting": "PDE4B1; read-out: % inhibition", "value": 21, "unit": "%"},
      {"measurement": "inhibition at 0.1 µM", "setting": "PDE11A; read-out: % inhibition", "value": 16, "unit": "%"},
      {"measurement": "inhibition at 0.1 µM", "setting": "PDE11A; [1]", "value": 14, "unit": "%"},
      {"measurement": "inhibition at 0.1 µM", "setting": "PDE11A; [2]", "value": 18, "unit": "%"},
      {"measurement": "inhibition at 0.1 µM", "setting": "PDE4C1; [1]", "value": 10, "unit": "%"},
      {"measurement": "inhibition at 0.1 µM", "setting": "PDE4C1; [2]", "value": 14, "unit": "%"},
      {"measurement": "inhibition at 0.1 µM", "setting": "PDE4C1; read-out: % inhibition", "value": 12, "unit": "%"},
      {"measurement": "inhibition at 0.1 µM", "setting": "PDE1B; read-out: % inhibition", "value": -2, "unit": "%"},
      {"measurement": "inhibition at 0.1 µM", "setting": "PDE1B; [1]", "value": -5, "unit": "%"},
      {"measurement": "inhibition at 0.1 µM", "setting": "PDE1B; [2]", "value": 0, "unit": "%"},
      {"measurement": "inhibition at 0.1 µM", "setting": "PDE5A1; [1]", "value": 16, "unit": "%"},
      {"measurement": "inhibition at 0.1 µM", "setting": "PDE5A1; [2]", "value": 16, "unit": "%"},
      {"measurement": "inhibition at 0.1 µM", "setting": "PDE5A1; read-out: % inhibition", "value": 16, "unit": "%"},
      {"measurement": "inhibition at 0.1 µM", "setting": "PDE7A; read-out: % inhibition", "value": 22, "unit": "%"},
      {"measurement": "inhibition at 0.1 µM", "setting": "PDE7A; [1]", "value": 24, "unit": "%"},
      {"measurement": "inhibition at 0.1 µM", "setting": "PDE7A; [2]", "value": 20, "unit": "%"},
      {"measurement": "inhibition at 0.1 µM", "setting": "PDE7B; read-out: % inhibition", "value": 8, "unit": "%"},
      {"measurement": "inhibition at 0.1 µM", "setting": "PDE7B; [1]", "value": 5, "unit": "%"},
      {"measurement": "inhibition at 0.1 µM", "setting": "PDE7B; [2]", "value": 11, "unit": "%"},
      {"measurement": "inhibition at 0.1 µM", "setting": "PDE2A; read-out: % inhibition", "value": 8, "unit": "%"},
      {"measurement": "inhibition at 0.1 µM", "setting": "PDE2A; [1]", "value": 6, "unit": "%"},
      {"measurement": "inhibition at 0.1 µM", "setting": "PDE2A; [2]", "value": 10, "unit": "%"},
      {"measurement": "inhibition at 0.1 µM", "setting": "PDE4D7; [1]", "value": 19, "unit": "%"},
      {"measurement": "inhibition at 0.1 µM", "setting": "PDE4D7; [2]", "value": 20, "unit": "%"},
      {"measurement": "inhibition at 0.1 µM", "setting": "PDE4D7; read-out: % inhibition", "value": 20, "unit": "%"},
      {"measurement": "inhibition at 0.1 µM", "setting": "PDE1C; read-out: % inhibition", "value": 5, "unit": "%"},
      {"measurement": "inhibition at 0.1 µM", "setting": "PDE1C; [1]", "value": 2, "unit": "%"},
      {"measurement": "inhibition at 0.1 µM", "setting": "PDE1C; [2]", "value": 9, "unit": "%"},
      {"measurement": "inhibition at 0.1 µM", "setting": "PDE4A1A; read-out: % inhibition", "value": 16, "unit": "%"},
      {"measurement": "inhibition at 0.1 µM", "setting": "PDE4A1A; [1]", "value": 14, "unit": "%"},
      {"measurement": "inhibition at 0.1 µM", "setting": "PDE4A1A; [2]", "value": 18, "unit": "%"},
      {"measurement": "inhibition at 0.1 µM", "setting": "PDE10A1; [1]", "value": 61, "unit": "%"},
      {"measurement": "inhibition at 0.1 µM", "setting": "PDE10A1; [2]", "value": 65, "unit": "%"},
      {"measurement": "inhibition at 0.1 µM", "setting": "PDE10A1; read-out: % inhibition", "value": 63, "unit": "%"},
      {"measurement": "inhibition at 0.1 µM", "setting": "PDE8A1; [1]", "value": 10, "unit": "%"},
      {"measurement": "inhibition at 0.1 µM", "setting": "PDE8A1; [2]", "value": 12, "unit": "%"},
      {"measurement": "inhibition at 0.1 µM", "setting": "PDE8A1; read-out: % inhibition", "value": 11, "unit": "%"},
      {"measurement": "inhibition at 0.1 µM", "setting": "PDE10A2; [1]", "value": 67, "unit": "%"},
      {"measurement": "inhibition at 0.1 µM", "setting": "PDE10A2; [2]", "value": 70, "unit": "%"},
      {"measurement": "inhibition at 0.1 µM", "setting": "PDE10A2; read-out: % inhibition", "value": 68, "unit": "%"},
      {"measurement": "% inhibition", "setting": "PDE1A1", "value": 5, "unit": "%"},
      {"measurement": "% inh. #1", "setting": "PDE1A1; replicate #1", "value": 3, "unit": "%"},
      {"measurement": "% inh. #2", "setting": "PDE1A1; replicate #2", "value": 7, "unit": "%"}
    ]},
    {"molecule": "COc1cc2c(cc1OC)-c1c/c(=N\\c3c(C)cc(C)cc3C)n(C)c(=O)n1CC2", "note": "[trequinsin, 9,10-dimethoxy-3-methyl-2-(2,4,6-trimethylphenyl)imino-6,7-dihydropyrimido[6,1-a]isoquinolin-4-one]", "values": [
      {"measurement": "RC50 (the concentration at which it achieved 50% rescue)", "setting": "HeLa cells", "value": "< 1", "unit": "nM"},
      {"measurement": "IC50", "setting": "PDE3", "value": 0.25, "unit": "nM"}
    ]}
  ]
}
